Data set [1] deals with A549. Briefly: Cytotoxicity against human A549 cells assessed as reduction in cell viability at > antiviral IC50 by MTT assay. Type of data set: cell-based.
For data set [2], the system named is A549. Nature of the data set: Cytotoxicity against human A549 cells assessed as reduction in cell viability at <= 1 uM by MTT assay. It counts as cell-based. (Tetrazolium assays rely on reduction of a dye to a coloured formazan, in cell work by metabolically active cells.)
Data set [3] concerns Zika virus. Briefly: Antiviral activity against Zika virus infected in human A549 cells assessed as reduction in viral titer incubated for 48 hrs by plaque assay. Type of data set: functional, organism-based. Particulars: A549, 48 h.
For data set [4], the system named is Zika virus. Nature of the data set: Potency index, ratio of ASN 07115873 to compound IC50 for Antiviral activity against Zika virus infected in human A549 cells. It counts as functional.

Where only a bound is given, the exact number is not on record here.

A word on the IC50: it is the concentration that gives 50% inhibition.

As for `C=CCSc1nc(NC(=O)Nc2ccc(Cl)c(C(F)(F)F)c2)ns1`, the Activity result is “>= 50%” with A549 [1] and “Non-Toxic” in the data set on A549 [2]. Further, in the data set with Zika virus [3], the IC50 came to 1000 nM.

Take `C=CCSc1nsc(NC(=O)Nc2ccc(I)cc2)n1`: the Activity entry is reported as “>= 50%” with A549 [1] and “Non-Toxic” in the data set on A549 [2]. Moreover, the IC50 in the data set on Zika virus [3] came out at 0.414 nM.

For the compound `C=CCSc1nnc(NC(=S)Nc2ccc(Cl)c(C(F)(F)F)c2)s1`, the values for the Activity result in the data set with A549 [1] and in the data set with A549 [2] were “>= 50%” and “Non-Toxic”, respectively. Besides, in the data set on Zika virus [3], the IC50 came to 0.0977 nM.

For `C=CCSc1nc(NC(=S)Nc2ccc(Br)cc2)ns1`, the values for the Activity entry with A549 [1] and in the data set on A549 [2] were “>= 50%” and “Non-Toxic”, respectively. Moreover, the IC50 with Zika virus [3] amounted to 4100 nM.

On to `C=CCSc1nsc(NC(=S)Nc2ccc(Cl)c(C(F)(F)F)c2)n1`, for which the Activity result with A549 [1] is given as “>= 50%”; in the data set with A549 [2], “Non-Toxic”. For the same compound, in the data set with Zika virus [3], the concentration for half-maximal inhibition (IC50) was determined as 4.9 nM.

As to `C=CCSc1nnc(NC(=S)Nc2ccc(Br)cc2C(F)(F)F)s1`, in the data set on Zika virus [3], the IC50 is 46.6 nM.

For the compound `C#CCSc1nsc(NC(=O)Nc2ccc(Br)cc2)n1`, the Activity result in the data set on A549 [1] is recorded as “>= 50%”; in the data set with A549 [2], “Non-Toxic”. Moreover, in the data set on Zika virus [3], the IC50 was 0.665 nM.

Turning to `C=CCSc1nnc(NC(=O)Nc2ccc(Cl)c(C(F)(F)F)c2)s1`, the Activity result with A549 [1] is on record as “>= 50%”; in the data set on A549 [2], “Non-Toxic”. Besides, in the data set with Zika virus [3], the 50% inhibitory concentration (IC50) turned out to be 0.111 nM.

Take `O=C(Nc1ccc(Cl)c(C(F)(F)F)c1)Nc1nnc(S)s1`: the IC50 in the data set on Zika virus [3] was 0.982 nM.

Consider `C=CCSc1nnc(NC(=O)Nc2ccc(I)cc2)s1`, for which the figures for the Activity entry in the data set with A549 [1] and with A549 [2] were “>= 50%” and “Non-Toxic”, respectively. Further, the half-inhibitory concentration (IC50) in the data set on Zika virus [3] stood at 0.179 nM.

Take `C#CCSc1nsc(NC(=O)Nc2ccc(Cl)cc2)n1`: the Activity entry was “>= 50%” in the data set with A549 [1] and “Non-Toxic” in the data set with A549 [2]. In addition, the concentration for half-maximal inhibition (IC50) in the data set on Zika virus [3] is 1.4 nM.

Regarding `C=CCSc1nsc(NC(=S)Nc2ccc(I)cc2)n1`, the values for the Activity entry with A549 [1] and in the data set on A549 [2] were “>= 50%” and “Non-Toxic”, respectively. The IC50 in the data set on Zika virus [3] is 2600 nM.

For the compound `C=CCSc1nc(NC(=S)Nc2ccc(Br)cc2C(F)(F)F)ns1`, in the data set on Zika virus [3], the IC50 is 2900 nM.

For `C=CCSc1nnc(NC(=S)Nc2ccc(Br)cc2)s1`, the Activity entry in the data set on A549 [1] was “>= 50%”; with A549 [2], “Non-Toxic”. In the data set on Zika virus [3], the IC50 came to 0.147 nM.

Turning to `C=CCSc1nsc(NC(=O)Nc2ccc(Cl)cc2)n1`, the values for the Activity entry with A549 [1] and with A549 [2] were “>= 50%” and “Non-Toxic”, respectively. Moreover, in the data set on Zika virus [3], the 50% inhibitory concentration (IC50) turned out to be 0.191 nM.

Take `C=CCSc1nsc(NC(=S)Nc2ccc(Cl)cc2)n1`: the Activity entry in the data set with A549 [1] is recorded as “>= 50%”; in the data set on A549 [2] it was “Non-Toxic”. Further, the half-maximal inhibitory concentration (IC50) with Zika virus [3] stood at 493 nM.

As to `C#CCSc1nsc(NC(=O)Nc2ccc(I)cc2)n1`, the Activity result in the data set with A549 [1] is given as “>= 50%”; with A549 [2] it was “Non-Toxic”. Moreover, the IC50 in the data set on Zika virus [3] amounted to 0.809 nM.

Regarding `C=CCNc1nc(NC(=O)Nc2ccc(I)cc2)ns1`, the Activity result is recorded as “>= 50%” with A549 [1] and “Non-Toxic” with A549 [2]. Further, the 50% inhibitory concentration (IC50) with Zika virus [3] came out at 0.1 nM.

As for `C#CCSc1nsc(NC(=S)Nc2ccc(Cl)c(C(F)(F)F)c2)n1`, the results for the Activity entry in the data set with A549 [1] and in the data set with A549 [2] were “>= 50%” and “Non-Toxic”, respectively. Besides, the IC50 in the data set on Zika virus [3] stood at 57.4 nM.

Regarding `C=CCSc1nsc(NC(=O)Nc2ccc(Cl)c(C(F)(F)F)c2)n1`, the Activity entry was “>= 50%” in the data set with A549 [1] and “Non-Toxic” with A549 [2]. Besides, the IC50 in the data set with Zika virus [3] is 0.423 nM.

Consider `C=CCSc1nnc(NC(=S)Nc2ccc(I)cc2)s1`, for which the Activity result in the data set on A549 [1] was “>= 50%”; in the data set on A549 [2] it was “Non-Toxic”. The half-inhibitory concentration (IC50) in the data set with Zika virus [3] amounted to 0.156 nM.

On to `C=CCNc1nc(NC(=O)Nc2ccc(Cl)c(C(F)(F)F)c2)ns1`, for which the Activity result is “>= 50%” in the data set on A549 [1] and “Non-Toxic” in the data set on A549 [2]. In the data set with Zika virus [3], the IC50 was 0.114 nM.

On to `C=CCNc1nc(NC(=O)Nc2ccc(Br)cc2)ns1`, for which the Activity result was “>= 50%” with A549 [1] and “Non-Toxic” in the data set with A549 [2]. Further, the IC50 in the data set on Zika virus [3] was 0.0977 nM.

Turning to `C=CCSc1nsc(NC(=S)Nc2ccc(Br)cc2)n1`, the Activity entry in the data set with A549 [1] was “>= 50%”; with A549 [2] it was “Non-Toxic”. Further, the 50% inhibitory concentration (IC50) with Zika virus [3] was determined as 2100 nM.

On to `C=CCSc1nc(NC(=S)Nc2ccc(Cl)cc2)ns1`, for which the Activity entry with A549 [1] is reported as “>= 50%”; in the data set on A549 [2] it was “Non-Toxic”. Further, the IC50 in the data set with Zika virus [3] came out at 2600 nM.

Turning to `C=CCSc1nc(NC(=O)Nc2ccc(I)cc2)ns1`, the Activity entry was “>= 50%” with A549 [1] and “Non-Toxic” in the data set with A549 [2]. Besides, the half-maximal inhibitory concentration (IC50) with Zika virus [3] is 1200 nM.

`C=CCNc1nc(NC(=O)Nc2ccc(Cl)cc2)ns1`: the “Ratio IC50” value in the data set with Zika virus [4] worked out at 2.2. Besides, the Activity result in the data set with A549 [1] was “>= 50%”; with A549 [2], “Non-Toxic”. Also, in the data set on Zika virus [3], the IC50 is 0.0851 nM.

Turning to `C=CCSc1nc(NC(=O)Nc2ccc(Br)cc2)ns1`, the Activity entry with A549 [1] is recorded as “>= 50%”; in the data set with A549 [2], “Non-Toxic”. Besides, the IC50 with Zika virus [3] came to 1300 nM.

Consider `C=CCSc1nnc(NC(=O)Nc2ccc(Cl)cc2)s1`, for which the Activity entry was “>= 50%” in the data set on A549 [1] and “Non-Toxic” with A549 [2]. Moreover, the 50% inhibitory concentration (IC50) in the data set with Zika virus [3] worked out at 0.191 nM.

Consider `C=CCSc1nnc(NC(=O)Nc2ccc(Br)cc2)s1`, for which the Activity result with A549 [1] is recorded as “>= 50%”; with A549 [2] it was “Non-Toxic”. In addition, the IC50 with Zika virus [3] was 0.144 nM.

As to `C=CCSc1nnc(NC(=O)Nc2ccc(Br)cc2C(F)(F)F)s1`, in the data set with Zika virus [3], the half-maximal inhibitory concentration (IC50) amounted to 9100 nM.

Turning to `C#CCSc1nsc(NC(=O)Nc2ccc(Cl)c(C(F)(F)F)c2)n1`, the Activity result with A549 [1] is “>= 50%”; with A549 [2], “Non-Toxic”. The 50% inhibitory concentration (IC50) in the data set with Zika virus [3] is 0.962 nM.

For the compound `CCCSc1nnc(NC(=O)Nc2ccc(Cl)c(C(F)(F)F)c2)s1`, the 50% inhibitory concentration (IC50) with Zika virus [3] is 0.149 nM.

For the compound `C=CCSc1nc(NC(=S)Nc2ccc(Cl)c(C(F)(F)F)c2)ns1`, the Activity result in the data set on A549 [1] was “>= 50%”; with A549 [2], “Non-Toxic”. The half-inhibitory concentration (IC50) in the data set with Zika virus [3] was determined as 233 nM.

Take `C=CCSc1nsc(NC(=O)Nc2ccc(Br)cc2)n1`: the results for the Activity result with A549 [1] and in the data set on A549 [2] were “>= 50%” and “Non-Toxic”, respectively. In addition, the 50% inhibitory concentration (IC50) in the data set on Zika virus [3] came to 0.329 nM.

For the compound `C#CCSc1nsc(NC(=S)Nc2ccc(Br)cc2)n1`, the Activity entry with A549 [1] is “>= 50%”; in the data set on A549 [2], “Non-Toxic”. Also, the 50% inhibitory concentration (IC50) in the data set on Zika virus [3] worked out at 706 nM.

Take `C=CCSc1nc(NC(=S)Nc2ccc(I)cc2)ns1`: the Activity entry is “>= 50%” in the data set on A549 [1] and “Non-Toxic” in the data set with A549 [2]. Also, the IC50 in the data set with Zika virus [3] came out at 2700 nM.

The record behind these values is ChEMBL document CHEMBL4396960, “Optimization of 1,3-disubstituted urea-based inhibitors of Zika virus infection” (Bioorg Med Chem Lett, 2019).
